Data reported in EPA's CvTdb concentration-time database (doi:10.1093/toxsci/kfy020).

Assays:
Assay in all cases: concentration in plasma after dosing
[1] = system: rat; settings: dosed: Diazinon-o-analog, 5.02 mg/kg, oral, male, Sprague-Dawley
[2] = system: rat; settings: dosed: Diazinon-o-analog, 1.02 mg/kg, iv, male, Sprague-Dawley
[3] = system: rat; settings: dosed: Diazinon-o-analog, 1.02 mg/kg, iv, male, Sprague-Dawley; remark: listed apart in the source
[4] = system: rat; settings: male, Sprague-Dawley
[5] = system: rat; settings: dosed: Diazinon-o-analog, 5.02 mg/kg, oral, male, Sprague-Dawley; remark: listed apart in the source
[6] = system: rat; settings: dosed: Flufenacet, 1.0 mg/kg, iv, male, Sprague-Dawley
[7] = system: rat; settings: dosed: Flufenacet, 5.2 mg/kg, oral, male, Sprague-Dawley
[8] = system: rat; settings: dosed: Flufenacet, 1.0 mg/kg, iv, male, Sprague-Dawley; remark: listed apart in the source
[9] = system: rat; settings: dosed: Flufenacet, 5.2 mg/kg, oral, male, Sprague-Dawley; remark: listed apart in the source
[10] = system: rat; settings: dosed: Imidacloprid, 5.0000000000 mg/kg, oral, male, Sprague-Dawley
[11] = system: rat; settings: dosed: Imidacloprid, 5.0000000000 mg/kg, iv, male, Sprague-Dawley
[12] = system: rat; settings: dosed: Imidacloprid, 5.0000000000 mg/kg, iv, male, Sprague-Dawley; remark: listed apart in the source
[13] = system: rat; settings: dosed: Imidacloprid, 5.0000000000 mg/kg, oral, male, Sprague-Dawley; remark: listed apart in the source
[14] = system: rat; settings: dosed: Imidacloprid, 5.0000000000 mg/kg, iv, male, Sprague-Dawley; remark: listed apart in the source
[15] = system: rat; settings: dosed: Imidacloprid, 5.0000000000 mg/kg, oral, male, Sprague-Dawley; remark: listed apart in the source
[16] = system: rat; settings: dosed: Chloridazon, 4.17 mg/kg, oral, male, Sprague-Dawley
[17] = system: rat; settings: dosed: Chloridazon, 4.17 mg/kg, oral, male, Sprague-Dawley; remark: listed apart in the source
[18] = system: rat; settings: dosed: Chloridazon, 0.80 mg/kg, iv, male, Sprague-Dawley
[19] = system: rat; settings: dosed: Chloridazon, 0.80 mg/kg, iv, male, Sprague-Dawley; remark: listed apart in the source
[20] = system: rat; settings: dosed: Novaluron, 2.0000000000 mg/kg, oral, male, Sprague-Dawley
[21] = system: rat; settings: dosed: Novaluron, 0.4000000000 mg/kg, iv, male, Sprague-Dawley
[22] = system: rat; settings: dosed: Novaluron, 2.0000000000 mg/kg, oral, male, Sprague-Dawley; remark: listed apart in the source
[23] = system: rat; settings: dosed: Novaluron, 0.4000000000 mg/kg, iv, male, Sprague-Dawley; remark: listed apart in the source
[24] = system: rat; settings: dosed: Novaluron, 2.0000000000 mg/kg, oral, male, Sprague-Dawley; remark: listed apart in the source

CCOP(=O)(OCC)Oc1cc(C)nc(C(C)C)n1 [Diazinon-o-analog]
concentration in plasma [ng/mL]
Settings | [1] | [2] | [3] | [5]
0.167 h | – | 374 | 337 | –
0.25 h | 1780 | – | – | 1220
0.5 h | 330 | 1340 | 349 | 1070
1 h | 1040 | 413 | 440 | 1060
2 h | 786 | 286 | 294 | 948
4 h | 745 | 188 | 155 | 784
5 min | – | 247 | 214 | –
8 h | 316 | 60.9 | 59.5 | 292
24 h | 5.04 | 0.552 | 0.498 | 4.31
48 h | 0.193 | 0.0484 | – | 0.116
72 h | 3.73 | – | 0.247 | 1.21

[4], dosed: Diazinon-o-analog
Settings | concentration in plasma [ng/mL]
0.167 h, 1.02 mg/kg, iv | 596
0.25 h, 5.02 mg/kg, oral | 916
0.5 h, 1.02 mg/kg, iv | 597
0.5 h, 5.02 mg/kg, oral | 846
1 h, 1.02 mg/kg, iv | 356
1 h, 5.02 mg/kg, oral | 1180
2 h, 1.02 mg/kg, iv | 271
2 h, 5.02 mg/kg, oral | 1140
4 h, 1.02 mg/kg, iv | 174
4 h, 5.02 mg/kg, oral | 715
5 min, 1.02 mg/kg, iv | 564
8 h, 1.02 mg/kg, iv | 57.9
8 h, 5.02 mg/kg, oral | 298
24 h, 1.02 mg/kg, iv | 1.14
24 h, 5.02 mg/kg, oral | 2.63
48 h, 5.02 mg/kg, oral | 1.84
72 h, 1.02 mg/kg, iv | 0.481
72 h, 5.02 mg/kg, oral | 0.239

CC(C)N(C(=O)COc1nnc(C(F)(F)F)s1)c1ccc(F)cc1 [Flufenacet]
concentration in plasma [ng/mL]
Settings | [6] | [7] | [8] | [9]
0.167 h | 80.7 | – | 52.4 | –
0.25 h | – | 2.17 | – | 0.708
0.5 h | 13.7 | 1.32 | 8.65 | 0.41
1 h | 1.82 | 0.462 | 4.31 | 0.274
2 h | 0.896 | 0.22 | 3.42 | 0.256
4 h | 0.328 | 0.135 | 2.88 | 0.199
5 min | 195 | – | 128 | –
8 h | 0.0709 | 0.116 | 0.0986 | 0.15
24 h | 0.0595 | 0.0179 | 0.044 | 0.0249
48 h | 0.0264 | 0.0128 | 0.026 | 0.017
72 h | 0.0353 | 0.0208 | 0.0121 | 0.0224

[4], dosed: Flufenacet
Settings | concentration in plasma [ng/mL]
0.167 h, 1.0 mg/kg, iv | 20.4
0.25 h, 5.2 mg/kg, oral | 0.81
0.5 h, 1.0 mg/kg, iv | 4.05
0.5 h, 5.2 mg/kg, oral | 0.401
1 h, 1.0 mg/kg, iv | 3.72
1 h, 5.2 mg/kg, oral | 0.451
2 h, 1.0 mg/kg, iv | 1.81
2 h, 5.2 mg/kg, oral | 0.188
4 h, 1.0 mg/kg, iv | 2.03
4 h, 5.2 mg/kg, oral | 0.146
5 min, 1.0 mg/kg, iv | 48.6
8 h, 1.0 mg/kg, iv | 2.1
8 h, 5.2 mg/kg, oral | 0.0824
24 h, 1.0 mg/kg, iv | 0.0352
24 h, 5.2 mg/kg, oral | 0.0158
48 h, 1.0 mg/kg, iv | 0.0229
48 h, 5.2 mg/kg, oral | 0.0322
72 h, 1.0 mg/kg, iv | 0.0508
72 h, 5.2 mg/kg, oral | 0.0214

O=[N+]([O-])/N=C1\NCCN1Cc1ccc(Cl)nc1 [Imidacloprid]
concentration in plasma [ng/mL]
Settings | [10] | [11] | [12] | [13] | [14] | [15]
0.25 h | 4410 | – | – | 831 | – | 1770
0.5 h | 4310 | 382 | 743 | 935 | 1140 | 2660
1 h | 6030 | 560 | 603 | 1930 | 922 | 2670
2 h | 3400 | 694 | 786 | 2060 | 626 | 2380
4 h | 2480 | 548 | 552 | 2620 | 478 | 1990
5 min | – | 217 | 786 | – | 1260 | –
8 h | 2670 | 170 | 232 | 2950 | 191 | 648
10 min | – | 328 | 683 | – | 1500 | –
12 h | 1520 | 67 | 141 | 1200 | 67.5 | 278
24 h | 259 | 8.54 | 14 | 279 | 8.66 | 46
48 h | 33.6 | – | 2.12 | 17.9 | – | 14.5
72 h | – | 2.49 | – | 13.2 | – | 8.76

concentration in plasma [ng/mL], [4], dosed: Imidacloprid, 5.0000000000 mg/kg
Settings | iv | oral
0.25 h | – | 1600
0.5 h | 971 | 2290
1 h | 683 | 1550
2 h | 943 | 2920
4 h | 695 | 2610
5 min | 1190 | –
8 h | 327 | 2330
10 min | 1260 | –
12 h | 233 | 1360
24 h | 17.6 | 171
48 h | 2.89 | 19.7
72 h | – | 6.62

Nc1cnn(-c2ccccc2)c(=O)c1Cl [Chloridazon]
concentration in plasma [ng/mL]
Settings | [16] | [17] | [18] | [19]
0.167 h | – | – | 477 | 228
0.25 h | 476 | 402 | – | –
0.5 h | 636 | 466 | 349 | 352
1 h | 858 | 863 | 106 | 102
2 h | 586 | 337 | 11.4 | 23.6
4 h | 158 | 64.9 | 1.03 | 1.66
5 min | – | – | 404 | 371
8 h | 3.03 | 48.8 | 1.72 | 0.333
24 h | 0.913 | 0.604 | 0.115 | 0.0228
48 h | 0.0563 | 0.0265 | – | 0.0394
72 h | 0.00435 | 0.0146 | 0.116 | –

[4], dosed: Chloridazon
Settings | concentration in plasma [ng/mL]
0.167 h, 0.80 mg/kg, iv | 54.2
0.25 h, 4.17 mg/kg, oral | 382
0.5 h, 0.80 mg/kg, iv | 144
0.5 h, 4.17 mg/kg, oral | 616
1 h, 0.80 mg/kg, iv | 88
1 h, 4.17 mg/kg, oral | 863
2 h, 0.80 mg/kg, iv | 106
2 h, 4.17 mg/kg, oral | 371
4 h, 0.80 mg/kg, iv | 88.3
4 h, 4.17 mg/kg, oral | 202
5 min, 0.80 mg/kg, iv | 84.5
8 h, 0.80 mg/kg, iv | 0.556
8 h, 4.17 mg/kg, oral | 93.2
24 h, 0.80 mg/kg, iv | 0.0877
24 h, 4.17 mg/kg, oral | 0.329
48 h, 0.80 mg/kg, iv | 0.0282
48 h, 4.17 mg/kg, oral | 0.0714
72 h, 0.80 mg/kg, iv | 0.072

O=C(NC(=O)c1c(F)cccc1F)Nc1ccc(OC(F)(F)C(F)OC(F)(F)F)c(Cl)c1 (centres undefined) [Novaluron]
concentration in plasma [ng/mL]
Settings | [20] | [21] | [22] | [23] | [24]
0.25 h | 14 | – | 5.18 | – | 9.95
0.5 h | 37.7 | 125 | 25.3 | 202 | 24
1 h | 75 | 112 | 70.4 | 191 | 49.9
2 h | 165 | 68.3 | 135 | 120 | 63
4 h | 149 | 32.7 | 151 | 75.9 | 132
5 min | – | 241 | – | 283 | –
8 h | 191 | 31.4 | 148 | 34.7 | 89.1
10 min | – | 43.2 | – | 188 | –
12 h | 129 | 11.6 | 172 | 21.7 | 117
24 h | 59.6 | 8.64 | 44.3 | 9.78 | 81.5
48 h | 40.7 | – | 29.8 | 5.04 | 35
72 h | 22.9 | – | 14.6 | 5.1 | 16.2

[4], dosed: Novaluron
Settings | concentration in plasma [ng/mL]
0.25 h, 2.0000000000 mg/kg, oral | 2.87
0.5 h, 0.4000000000 mg/kg, iv | 194
0.5 h, 2.0000000000 mg/kg, oral | 23.8
1 h, 0.4000000000 mg/kg, iv | 176
1 h, 2.0000000000 mg/kg, oral | 70.5
2 h, 0.4000000000 mg/kg, iv | 188
2 h, 2.0000000000 mg/kg, oral | 137
4 h, 0.4000000000 mg/kg, iv | 121
4 h, 2.0000000000 mg/kg, oral | 168
5 min, 0.4000000000 mg/kg, iv | 252
8 h, 0.4000000000 mg/kg, iv | 48.3
8 h, 2.0000000000 mg/kg, oral | 199
10 min, 0.4000000000 mg/kg, iv | 161
12 h, 0.4000000000 mg/kg, iv | 21.8
12 h, 2.0000000000 mg/kg, oral | 141
24 h, 0.4000000000 mg/kg, iv | 15.9
24 h, 2.0000000000 mg/kg, oral | 53.2
48 h, 0.4000000000 mg/kg, iv | 6.27
48 h, 2.0000000000 mg/kg, oral | 25.3
72 h, 0.4000000000 mg/kg, iv | 2.8
72 h, 2.0000000000 mg/kg, oral | 21.4
